From patent US20230172206A1 (BASF SE, priority 2020, published 2023)
Where “and” joins values, the source holds several entries; their conditions need not be identical. Identical values can stand only once. Like-named read-outs stand apart in the source and are kept apart here.

How the values were obtained:
[1] = system: Phakopsora pachyrhizi (F129L); experiment: Protective control of soybean rust on soybeans (PHAKPA P2); type: in vivo; settings: for PHAKPA (F129L) Disease level (%) P2 at 4 ppm: protective, inoculation 2 days after spraying, % diseased leaf area
[2] = system: Phakopsora pachyrhizi (F129L); experiment: Protective control of soybean rust on soybeans (PHAKPA P6); type: in vivo
[3] = system: Phakopsora pachyrhizi (wt); experiment: Protective control of soybean rust on detached soybean leaves (PHAKPA P1 DL), Qo inhibitor-sensitive wt isolate; type: in vivo
[4] = system: Phakopsora pachyrhizi (F129L); experiment: Protective control of soybean rust on detached soybean leaves (PHAKPA P1 DL), F129L isolate; type: in vivo
Alternaria solani (wt) = type: cell-based
[5] = system: Alternaria solani (F129L); experiment: Micro titer plate test against early blight (ALTESO F129L); type: cell-based; settings: 0.016 ppm, 7 days after inoculation, relative to compound-free control (100%)
Microdochium nivale = type: cell-based; settings: 0.016 ppm, 7 days after inoculation, relative to compound-free control (100%)
Septoria tritici = experiment: Micro titer plate test against leaf blotch on wheat (SEPTTR); type: cell-based
Cercospora sojina = type: cell-based; settings: 4 ppm, 7 days after inoculation, relative to compound-free control (100%)
[6] = system: Colletotrichum orbiculare; experiment: Micro titer plate test against anthracnose (COLLLA); type: cell-based; settings: 0.063 ppm, 7 days after inoculation, relative to compound-free control (100%)
Pyrenophora teres (wt) = experiment: Micro titer plate test against net blotch on barley (PYRNTE wt); type: cell-based; settings: 0.25 ppm, 7 days after inoculation, relative to compound-free control (100%)
Leptosphaeria nodorum = experiment: Micro titer plate test against wheat leaf spots (LEPTNO); type: cell-based; settings: 0.063 ppm, 7 days after inoculation, relative to compound-free control (100%)
[7] = 0.016 ppm, 7 days after inoculation, relative to compound-free control (100%)
[8] = 0.25 ppm, 7 days after inoculation, relative to compound-free control (100%)

## CNC(=O)/C(=N/OC)c1cccc(C)c1CO/N=C(\C)c1ccc(Cl)cc1 [compound 158]
[1]; protective P2, 4 ppm, soybean rust F129L isolate
  % PHAKPA (F129L) Disease level P2 at 4 ppm: 0%
[1]; protective P2, 16 ppm, soybean rust F129L isolate
  % PHAKPA (F129L) Disease level P2 at 16 ppm: 0%
[1]
  PHAKPA (F129L) Disease level (%) P2 at 4 ppm: 1%
[2]; protective P6, 4 ppm, soybean rust F129L isolate
  % PHAKPA (F129L) Disease level P6 at 4 ppm: 2%
[2]; protective P6, 16 ppm, soybean rust F129L isolate
  % PHAKPA (F129L) Disease level P6 at 16 ppm: 0%
[2]; protective, inoculation six days after spraying, 4 ppm, % diseased leaf area
  PHAKPA (F129L) Disease level (%) P6 at 4 ppm: 4%
[3]; test concentration 0.3 ppm
  PHAKPA P1 DL Disease level (%) Qo I-sensitive wt isolate (0 % F129L): 38%
[3]; test concentration 1 ppm
  PHAKPA P1 DL Disease level (%) Qo I-sensitive wt isolate (0 % F129L): 7%
[3]; test concentration 3 ppm
  PHAKPA P1 DL Disease level (%) Qo I-sensitive wt isolate (0 % F129L): 2%
[3]; test concentration 10 ppm
  PHAKPA P1 DL Disease level (%) Qo I-sensitive wt isolate (0 % F129L): 1%
[3]; test concentration 30 ppm
  PHAKPA P1 DL Disease level (%) Qo I-sensitive wt isolate (0 % F129L): 4%
[3]; test concentration 100 ppm
  PHAKPA P1 DL Disease level (%) Qo I-sensitive wt isolate (0 % F129L): 5%
[3]; test concentration 300 ppm
  PHAKPA P1 DL Disease level (%) Qo I-sensitive wt isolate (0 % F129L): 4%
[4]; test concentration 0.3 ppm
  PHAKPA P1 DL Disease level (%) Qo I-resistant F129L isolate (100 % F129L): 87%
[4]; test concentration 1 ppm
  PHAKPA P1 DL Disease level (%) Qo I-resistant F129L isolate (100 % F129L): 57%
[4]; test concentration 3 ppm
  PHAKPA P1 DL Disease level (%) Qo I-resistant F129L isolate (100 % F129L): 8%
[4]; test concentration 10 ppm
  PHAKPA P1 DL Disease level (%) Qo I-resistant F129L isolate (100 % F129L): 2%
[4]; test concentration 30 ppm
  PHAKPA P1 DL Disease level (%) Qo I-resistant F129L isolate (100 % F129L): 4%
[4]; test concentration 100 ppm
  PHAKPA P1 DL Disease level (%) Qo I-resistant F129L isolate (100 % F129L): 4%
[4]; test concentration 300 ppm
  PHAKPA P1 DL Disease level (%) Qo I-resistant F129L isolate (100 % F129L): 5%
Alternaria solani (wt); [7]
  Fungal growth (%) ALTESO wt: 66%
[5]
  Fungal growth (%) ALTESO F129L: 79%
Microdochium nivale
  Fungal growth (%) MONGNI: 71%

## CNC(=O)/C(=N/OC)c1cccc(C)c1CO/N=C(/c1cccc(C)c1)C1CC1
Septoria tritici; [8]
  Fungal growth (%) SEPTTR: 87%
Alternaria solani (wt); [7]
  Fungal growth (%) ALTESO wt: 89%
[5]
  Fungal growth (%) ALTESO F129L: 93%

## CNC(=O)/C(=N/OC)c1cccc(C)c1CO/N=C(\C)c1cccc(C(F)(F)F)c1 [compound 8]
Septoria tritici
  Fungal growth (%) SEPTTR: 57%
Alternaria solani (wt)
  Fungal growth (%) ALTESO wt: 56%
[5]; listed as Ex. 8
  Fungal growth (%) ALTESO F129L: 55% and 52%

## CO/N=C(/C(=O)OC)c1cccc(C)c1CO/N=C(/c1cccc(C)c1)C1CC1 [drawing 953]
Septoria tritici; [8]
  Fungal growth (%) SEPTTR: 89%

## CO/N=C(/C(=O)OC)c1cccc(C)c1CO/N=C(\SC)c1cccc(C)c1 [drawing 955]
Alternaria solani (wt); [7]
  Fungal growth (%) ALTESO wt: 67%
[5]
  Fungal growth (%) ALTESO F129L: 66%
Cercospora sojina
  Fungal growth (%) CERCSO: 71%

## Cc1cccc(-n2nnn(C)c2=O)c1COc1ccn(-c2ccc(Cl)cc2)n1 [drawing 930]
Alternaria solani (wt); [7]
  Fungal growth (%) ALTESO wt: 98%
[5]
  Fungal growth (%) ALTESO F129L: 100%
Microdochium nivale
  Fungal growth (%) MONGNI: 97%

## Cc1cccc(-n2nnn(C)c2=O)c1COc1ccn(-c2ccc(Cl)cc2)n1 [drawing 934, reference compound]
[4]; test concentration 0.3 ppm
  PHAKPA P1 DL Disease level (%) Qo I-resistant F129L isolate (100 % F129L): 88%
[4]; test concentration 1 ppm
  PHAKPA P1 DL Disease level (%) Qo I-resistant F129L isolate (100 % F129L): 90%
[4]; test concentration 3 ppm
  PHAKPA P1 DL Disease level (%) Qo I-resistant F129L isolate (100 % F129L): 95%
[4]; test concentration 10 ppm
  PHAKPA P1 DL Disease level (%) Qo I-resistant F129L isolate (100 % F129L): 92%
[4]; test concentration 30 ppm
  PHAKPA P1 DL Disease level (%) Qo I-resistant F129L isolate (100 % F129L): 90%
[4]; test concentration 100 ppm
  PHAKPA P1 DL Disease level (%) Qo I-resistant F129L isolate (100 % F129L): 65%
[4]; test concentration 300 ppm
  PHAKPA P1 DL Disease level (%) Qo I-resistant F129L isolate (100 % F129L): 52%

## CO/N=C(/C(=O)OC)c1cccc(C)c1CO/N=C(/c1cccc(C)c1)C1CC1 [drawing 957]
Alternaria solani (wt); [7]
  Fungal growth (%) ALTESO wt: 100%
[5]
  Fungal growth (%) ALTESO F129L: 87%
Cercospora sojina
  Fungal growth (%) CERCSO: 87%

## CNC(=O)/C(=N/OC)c1cccc(C)c1CO/N=C(\OC)c1cccc(C)c1
Septoria tritici; [8]
  Fungal growth (%) SEPTTR: 100%
Alternaria solani (wt); [7]
  Fungal growth (%) ALTESO wt: 93%
[5]
  Fungal growth (%) ALTESO F129L: 95%

## CNC(=O)/C(=N/OC)c1cccc(C)c1CO/N=C(\SC)c1cccc(Cl)c1 [drawing 968]
Septoria tritici; [8]
  Fungal growth (%) SEPTTR: 59%
Alternaria solani (wt); [8]
  Fungal growth (%) ALTESO wt: 43%
[5]
  Fungal growth (%) ALTESO F129L: 90%

## CO/N=C(/C(=O)OC)c1cccc(C)c1CO/N=C(\OC)c1cccc(C)c1
Alternaria solani (wt); [7]
  Fungal growth (%) ALTESO wt: 93%
[5]
  Fungal growth (%) ALTESO F129L: 81%
Cercospora sojina
  Fungal growth (%) CERCSO: 67%

## CO/N=C(/C(=O)OC)c1cccc(C)c1CO/N=C(\SC)c1cccc(Cl)c1 [drawing 965]
Cercospora sojina
  Fungal growth (%) CERCSO: 62%

## CNC(=O)/C(=N/OC)c1cccc(C)c1CO/N=C(\C)c1cccc(Cl)c1 [compound 157]
[1]; listed as Ex. 157
  PHAKPA (F129L) Disease level (%) P2 at 4 ppm: 0% and 1%
Septoria tritici; [8]
  Fungal growth (%) SEPTTR: 20%
[6]
  Fungal growth (%) COLLLA: 63%
Alternaria solani (wt); [8]
  Fungal growth (%) ALTESO wt: 27%
[5]
  Fungal growth (%) ALTESO F129L: 57%
Pyrenophora teres (wt)
  Fungal growth (%) PYRNTE wt: 54%
Cercospora sojina
  Fungal growth (%) CERCSO: 36%
Microdochium nivale
  Fungal growth (%) MONGNI: 56%

## CO/N=C(/C(=O)OC)c1cccc(C)c1CO/N=C(\SC)c1cccc(C)c1 [drawing 952]
Septoria tritici; [8]
  Fungal growth (%) SEPTTR: 61%

## CNC(=O)/C(=N/OC)c1cccc(C)c1CO/N=C(\SC)c1cccc(Cl)c1 [drawing 970]
Cercospora sojina
  Fungal growth (%) CERCSO: 78%

## CO/N=C(/C(=O)OC)c1cccc(C)c1CO/N=C(\C)c1cccc(C)c1 [compound 76]
[2]; protective, inoculation six days after spraying, % diseased leaf area, listed as Ex. 76
  PHAKPA (F129L) Disease level (%) P6 at 16 ppm: 0% and 4%
Septoria tritici; [8]
  Fungal growth (%) SEPTTR: 0%
Alternaria solani (wt); [7]
  Fungal growth (%) ALTESO wt: 55%
[5]
  Fungal growth (%) ALTESO F129L: 37%
Cercospora sojina
  Fungal growth (%) CERCSO: 28%

## CO/N=C(/C(=O)OC)c1cccc(C)c1CO/N=C(/c1cccc(Cl)c1)C1CC1 [drawing 963]
Septoria tritici; [8]
  Fungal growth (%) SEPTTR: 39%
Alternaria solani (wt); [7]
  Fungal growth (%) ALTESO wt: 81%
[5]
  Fungal growth (%) ALTESO F129L: 89%

## CO/N=C(/C(=O)OC)c1cccc(C)c1CO/N=C(\OC)c1cccc(C(F)(F)F)c1
Cercospora sojina
  Fungal growth (%) CERCSO: 56%

## CNC(=O)/C(=N/OC)c1cccc(C)c1CO/N=C(\OC)c1cccc(C(F)(F)F)c1 [drawing 948]
Septoria tritici; [8]
  Fungal growth (%) SEPTTR: 77%
Alternaria solani (wt); [7]
  Fungal growth (%) ALTESO wt: 100%
[5]
  Fungal growth (%) ALTESO F129L: 87%

## CO/N=C(/C(=O)OC)c1cccc(C)c1CO/N=C(\C)c1cccc(OC(F)(F)F)c1 [drawing 936]
Alternaria solani (wt); [7]
  Fungal growth (%) ALTESO wt: 94%
Cercospora sojina
  Fungal growth (%) CERCSO: 33%

## CNC(=O)/C(=N/OC)c1cccc(C)c1CO/N=C(\OC)c1cccc(C(F)(F)F)c1 [drawing 950]
Cercospora sojina
  Fungal growth (%) CERCSO: 60%

## CO/N=C(/C(=O)OC)c1cccc(C)c1CO/N=C(\C)c1cccc(C(F)(F)F)c1 [compound 9]
[2]; protective, inoculation six days after spraying, % diseased leaf area, listed as Ex. 9
  PHAKPA (F129L) Disease level (%) P6 at 16 ppm: 4% and 1%
Alternaria solani (wt); [7]
  Fungal growth (%) ALTESO wt: 73%
Cercospora sojina
  Fungal growth (%) CERCSO: 11%

## CO/N=C(/C(=O)OC)c1cccc(C)c1CO/N=C(/c1cccc(Cl)c1)C1CC1 [drawing 966]
Cercospora sojina
  Fungal growth (%) CERCSO: 61%

## CNC(=O)/C(=N/OC)c1cccc(C)c1CO/N=C(\SC)c1cccc(C(F)(F)F)c1
[5]
  Fungal growth (%) ALTESO F129L: 85%
Cercospora sojina
  Fungal growth (%) CERCSO: 66%

## CO/N=C(/C(=O)OC)c1cccc(C)c1CO/N=C(\SC)c1cccc(Cl)c1 [drawing 962]
Septoria tritici; [8]
  Fungal growth (%) SEPTTR: 39%
Alternaria solani (wt); [7]
  Fungal growth (%) ALTESO wt: 94%
[5]
  Fungal growth (%) ALTESO F129L: 100%

## CO/N=C(/C(=O)OC)c1cccc(C)c1CO/N=C(\C)c1cccc(Cl)c1 [compound 153]
[2]; protective, inoculation six days after spraying, % diseased leaf area, listed as Ex. 153
  PHAKPA (F129L) Disease level (%) P6 at 16 ppm: 1% and 5%
Septoria tritici; [8]
  Fungal growth (%) SEPTTR: 0%
[6]
  Fungal growth (%) COLLLA: 55%
Leptosphaeria nodorum
  Fungal growth (%) LEPTNO: 55%
Alternaria solani (wt); [7]
  Fungal growth (%) ALTESO wt: 71%
[5]
  Fungal growth (%) ALTESO F129L: 68%
Pyrenophora teres (wt)
  Fungal growth (%) PYRNTE wt: 31%
Cercospora sojina
  Fungal growth (%) CERCSO: 26%
Microdochium nivale
  Fungal growth (%) MONGNI: 75%
